Assay results: BigSolDB 2.1

CC(C)(C)NCC(O)c1ccc(O)c(CO)c1 (stereo not given)
solubility (mole fraction)
Conditions | in acetone | in ethanol | in ethyl acetate | in isobutanol | in isopropanol | in methanol | in methyl acetate | in n-butanol | in n-propanol | in sec-butanol
283.15 K | 0.000146 | 0.00218 | 0.000185 | 0.00154 | 0.00185 | 0.00599 | 0.000377 | 0.00109 | 0.00212 | 0.00102
288.15 K | 0.000162 | 0.00228 | 0.000204 | 0.00172 | 0.00205 | 0.00671 | 0.00041 | 0.0012 | 0.00235 | 0.00115
293.15 K | 0.000185 | 0.00271 | 0.000231 | 0.00192 | 0.00244 | 0.00745 | 0.000441 | 0.00134 | 0.00267 | 0.00131
298.15 K | 0.000211 | 0.00323 | 0.000261 | 0.00217 | 0.00278 | 0.00824 | 0.000471 | 0.00151 | 0.00317 | 0.00145
303.15 K | 0.000237 | 0.00412 | 0.00029 | 0.00243 | 0.00331 | 0.00909 | 0.000509 | 0.00168 | 0.0036 | 0.00163
308.15 K | 0.000271 | 0.0049 | 0.000323 | 0.00272 | 0.00382 | 0.0101 | 0.000545 | 0.00187 | 0.00413 | 0.00182
313.15 K | 0.000302 | 0.00585 | 0.000363 | 0.00304 | 0.00441 | 0.0112 | 0.00059 | 0.00211 | 0.00479 | 0.00202
318.15 K | 0.000346 | 0.00709 | 0.000399 | 0.00343 | 0.00512 | 0.0124 | 0.000631 | 0.00233 | 0.00552 | 0.00227
323.15 K | 0.000396 | 0.00846 | 0.000452 | 0.00385 | 0.00597 | 0.0137 | 0.000682 | 0.00262 | 0.00634 | 0.00252
328.15 K | 0.000451 | 0.0103 | 0.000501 | 0.00432 | 0.00698 | 0.0152 | 0.000735 | 0.00292 | 0.00743 | 0.00286
